Calls of active or inactive are those of the source.
How the values were obtained:
[1] = toxicity to A549 lung cells – cell-based, plate reader, dry powder, set 6, cytotoxicity control, dose response (AID 743312); assay type: functional
cells = details: HEK293
[2] = Counterscreen for […] of the human trace amine associated receptor 1 (TAAR1): Fluorescence-based cell-based high throughput dose response assay to identify nonselective Ga16 agonists.; assay type: functional
[3] = biological target: T1, Trace amine-associated receptor 1 (Homo sapiens, UniProt Q96RJ0); assay: Fluorescence-based cell-based high throughput dose response assay to identify antagonists of the human trace amine associated receptor 1 (TAAR1).; assay type: functional
T1 sequence (Q96RJ0 whole entry): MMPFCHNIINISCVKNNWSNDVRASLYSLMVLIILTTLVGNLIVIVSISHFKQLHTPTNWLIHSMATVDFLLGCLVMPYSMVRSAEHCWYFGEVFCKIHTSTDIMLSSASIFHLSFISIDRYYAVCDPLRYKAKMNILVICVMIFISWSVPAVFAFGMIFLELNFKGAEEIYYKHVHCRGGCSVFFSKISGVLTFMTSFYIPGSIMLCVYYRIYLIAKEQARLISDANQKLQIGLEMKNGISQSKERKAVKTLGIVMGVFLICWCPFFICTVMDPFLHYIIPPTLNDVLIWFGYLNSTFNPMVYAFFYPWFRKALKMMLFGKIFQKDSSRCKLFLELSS

[4] = Counterscreen for antagonists of the human trace amine associated receptor 1 (hTAAR1): Fluorescence-based cell-based high throughput dose response assay to identify nonselective Ga16 antagonists.; assay type: functional
[5] = biological target: T1, Trace amine-associated receptor 1; assay: Counterscreen for antagonists of the human trace amine associated receptor 1 (hTAAR1): Fluorescence-based cell-based high throughput dose response assay to identify TAAR1 Agonists.; assay type: functional
[6] = biological target: Induced myeloid leukemia cell differentiation protein Mcl-1 (Homo sapiens, UniProt Q07820); assay type: functional
[7] = biological target: T2, Carboxy-terminal domain RNA polymerase II polypeptide A small phosphatase 1 (Homo sapiens, UniProt Q9GZU7); assay: CTDSP1 inhibitors, concentration-response, biochemical, absorbance readout, ultra-high-throughput screen actives (AID 540297); assay type: functional
T2 sequence (Q9GZU7 whole entry): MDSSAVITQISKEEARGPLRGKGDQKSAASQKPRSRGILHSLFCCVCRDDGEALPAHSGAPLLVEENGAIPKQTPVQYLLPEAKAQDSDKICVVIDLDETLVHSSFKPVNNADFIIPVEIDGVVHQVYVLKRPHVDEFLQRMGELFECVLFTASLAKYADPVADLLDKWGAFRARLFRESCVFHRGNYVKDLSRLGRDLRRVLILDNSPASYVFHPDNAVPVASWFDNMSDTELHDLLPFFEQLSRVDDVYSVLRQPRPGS

[8] = biological target: T3, Probable nicotinate-nucleotide adenylyltransferase (Staphylococcus aureus (strain N315), UniProt P65502); assay type: functional, Staphylococcus aureus subsp. aureus N315;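 as to IC50 Mean: confirmatory dose-response retesting of NadD inhibitor hits first found in an ultra-high-throughput screen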
[9] = biological target: T3, Probable nicotinate-nucleotide adenylyltransferase; assay type: functional, Staphylococcus aureus subsp. aureus N315; details: read-out: IC50_Mean
[10] = Luminescence-based cell-based high throughput dose response assay to identify activators of the DAF-12 from the parasite S. stercoralis (ssDAF-12).; assay type: functional
[11] = viability loss in THP-1 monocytes – THP-1 cells, cytotoxicity control for Vif-APOBEC3G degradation inhibitor project, dose response (AID 1117359); assay type: functional; details: THP-1
[12] = viability inhibitors of stage V gametocytes – luminescence, dose response (AID 1117278); assay type: functional, cell-based;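 also: gametocytes exposed to compound for 24 hours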
[13] = viability loss in human Jurkat cells – cell-based, luminescence, cytotoxicity control for P. falciparum gametocyte viability project, dose response (AID 1117277); assay type: functional;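 also: potency reflects loss of cellular ATP meaning fewer viable cells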
[14] = growth inhibition of yeast DHODH-expressing 3D7 parasites – SYBR Green, dry powder samples, dose response (AID 1159570); assay type: functional, cell-based;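 also: parasite growth measured after 72 hours of compound exposure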
[15] = P. falciparum Dd2 growth inhibitors, dose response, SYBR Green, cherry-picked samples (AID 1159567); assay type: functional, cell-based
[16] = Dd2 malaria parasite growth inhibition potency – SYBR Green, dry powder samples, dose response (AID 1159566); assay type: functional, cell-based;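 also: potency for growth inhibition with lower SYBR green DNA signal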
[17] = growth inhibition of PfATP4-mutant resistant parasites – NITD609-resistant line, SYBR Green, dry powder, dose response (AID 1159571); assay type: functional, cell-based;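 also: parasites synchronized at ring stage by sorbitol before testing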
[18] = NIH-3T3 fibroblast cytotoxicity, dose response, cytotoxicity control, cell-based, fluorescence, Alamar Blue, secondary assay (AID 2327); assay type: functional;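 also: NIH-3T3 mouse fibroblasts cultured with fluconazole at 8 µg/mL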
[19] = fluconazole-exposed Candida albicans growth modulators – fluorescence, retest, confirmation (AID 2467); assay type: functional, cell-based
[20] = Trypanosoma cruzi growth suppression in host cells – NIH3T3 host cells, beta-gal luminescence, confirmation (AID 2044); assay type: functional, cell-based;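 also: intracellular parasites grown in NIH/3T3 mouse fibroblasts as host cells; luminescent beta-galactosidase reporter signal from transgenic T. cruzi replicating inside host cells; inhibitors lower the luminescence signal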
[21] = NIH3T3 cell viability loss – ATP luminescence, mouse fibroblasts, counter-screen, dose response (AID 2010); assay type: functional, cell-based;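 also: cells exposed to compound for about 90 hours before reading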
[22] = potency of ADAM10 substrate cleavage blockers – biochemical, QFRET, dose response (AID 743254);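 also: ADAM10 enzyme with the DM2 quenched FRET peptide as substrate; EDANS fluorescence gain as the protease cuts the substrate; inhibitor potency against ADAM10 proteolytic activity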
[23] = biological target: Disintegrin and metalloproteinase domain-containing protein 17 (Homo sapiens, UniProt P78536); assay: inhibition of ADAM17 substrate cleavage – biochemical, quenched FRET substrate, counter-screen for ADAM10 exosite inhibitor project, dose response (AID 743253)
[24] = tested on: Streptococcus sp. 'group A'; assay: Streptococcus pyogenes SK(-)GAS viability under kanamycin – luminescence, BacTiterGlo, confirmation, counter-screen for streptokinase expression inhibitor project, dose response (AID 1900); assay type: functional, organism-based
Streptokinase A = biological target: T4, Streptokinase A (Streptococcus pyogenes serotype M1, UniProt P10520); assay: viability-normalized secreted streptokinase activity reduction – plasminogen activation absorbance, OD405, dose response (AID 1914); assay type: functional, Streptococcus pyogenes M1 GAS;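 also: secreted streptokinase activity via plasminogen activation per viability signal from cell pellet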
T4 sequence (P10520 whole entry): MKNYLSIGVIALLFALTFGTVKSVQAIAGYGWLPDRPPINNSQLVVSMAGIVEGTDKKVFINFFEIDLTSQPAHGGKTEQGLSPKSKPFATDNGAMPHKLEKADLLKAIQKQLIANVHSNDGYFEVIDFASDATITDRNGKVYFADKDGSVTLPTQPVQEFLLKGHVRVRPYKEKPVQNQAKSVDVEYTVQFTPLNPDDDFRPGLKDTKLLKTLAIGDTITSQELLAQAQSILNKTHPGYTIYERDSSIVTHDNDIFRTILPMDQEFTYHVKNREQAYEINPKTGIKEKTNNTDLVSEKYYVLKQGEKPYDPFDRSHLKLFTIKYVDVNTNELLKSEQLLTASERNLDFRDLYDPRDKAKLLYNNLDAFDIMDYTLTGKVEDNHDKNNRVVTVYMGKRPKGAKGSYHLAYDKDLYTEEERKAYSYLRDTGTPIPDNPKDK

Streptococcus = assay: GAS UMAA2166 growth inhibition – luminescence, BacTiterGlo, counter-screen for streptokinase expression inhibitor project, dose response (AID 1915); assay type: functional, organism-based;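 also: potency for reduction of bacterial viability or growth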
[25] = Luminescence Cell-Based Dose Retest to Confirm Inhibitors of Cancer Stem Cells. [Related pubchem assays (depositor defined):AID2717, AID2721]; assay type: functional; details: Homo sapiens
fMet-Leu-Phe receptor = fMet-Leu-Phe receptor (Homo sapiens, UniProt P21462); assay: formyl peptide receptor binders – dose response (AID 519); assay type: functional
Protein Tat = Protein Tat (Human immunodeficiency virus type 1 group M subtype B (isolate HXB2)(HIV-1), UniProt P04608); assay type: functional;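 also: tat binding to TAR RNA read out by fluorescence polarization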
[26] = HIV-1 Vif–A3G interaction blockers – biochemical, TR-FRET, GST-Vif 1-94, biotin-A3G peptide, dose response retest, primary screen (AID 1117319); assay type: functional;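 also: TR-FRET signal of purified GST-Vif binding a biotinylated A3G peptide; inhibitors lower the FRET signal by blocking Vif and A3G binding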

Disintegrin and metalloproteinase domain-containing protein 17, sequence (P78536 whole entry, the tested form may be a part): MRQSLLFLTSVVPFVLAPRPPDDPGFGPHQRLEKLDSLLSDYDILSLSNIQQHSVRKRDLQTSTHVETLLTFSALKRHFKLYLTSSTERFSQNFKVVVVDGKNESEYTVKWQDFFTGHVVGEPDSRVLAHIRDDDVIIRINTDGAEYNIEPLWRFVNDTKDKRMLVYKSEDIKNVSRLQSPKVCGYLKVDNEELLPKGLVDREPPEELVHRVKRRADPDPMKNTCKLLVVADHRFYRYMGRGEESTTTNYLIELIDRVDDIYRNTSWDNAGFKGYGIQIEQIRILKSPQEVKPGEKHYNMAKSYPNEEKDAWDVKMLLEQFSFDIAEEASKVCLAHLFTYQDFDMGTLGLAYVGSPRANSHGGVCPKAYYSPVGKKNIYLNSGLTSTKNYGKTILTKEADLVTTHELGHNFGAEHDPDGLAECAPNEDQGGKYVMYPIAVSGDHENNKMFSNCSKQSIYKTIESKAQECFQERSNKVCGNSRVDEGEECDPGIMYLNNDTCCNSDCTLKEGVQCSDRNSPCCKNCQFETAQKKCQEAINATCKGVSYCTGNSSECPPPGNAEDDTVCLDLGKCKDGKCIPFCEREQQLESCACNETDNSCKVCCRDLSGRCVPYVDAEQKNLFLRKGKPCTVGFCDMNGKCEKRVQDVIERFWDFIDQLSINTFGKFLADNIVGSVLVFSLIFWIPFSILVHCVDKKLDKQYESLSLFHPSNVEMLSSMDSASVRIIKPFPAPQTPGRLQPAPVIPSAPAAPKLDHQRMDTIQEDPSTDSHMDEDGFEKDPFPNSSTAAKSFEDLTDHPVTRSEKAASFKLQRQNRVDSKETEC
T3 sequence (P65502 whole entry): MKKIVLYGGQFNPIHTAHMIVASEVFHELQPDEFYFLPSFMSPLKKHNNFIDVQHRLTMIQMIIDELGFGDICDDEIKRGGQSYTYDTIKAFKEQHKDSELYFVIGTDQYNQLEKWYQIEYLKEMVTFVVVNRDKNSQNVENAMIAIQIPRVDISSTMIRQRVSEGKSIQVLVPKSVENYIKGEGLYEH
Induced myeloid leukemia cell differentiation protein Mcl-1, sequence (Q07820 whole entry, the tested form may be a part): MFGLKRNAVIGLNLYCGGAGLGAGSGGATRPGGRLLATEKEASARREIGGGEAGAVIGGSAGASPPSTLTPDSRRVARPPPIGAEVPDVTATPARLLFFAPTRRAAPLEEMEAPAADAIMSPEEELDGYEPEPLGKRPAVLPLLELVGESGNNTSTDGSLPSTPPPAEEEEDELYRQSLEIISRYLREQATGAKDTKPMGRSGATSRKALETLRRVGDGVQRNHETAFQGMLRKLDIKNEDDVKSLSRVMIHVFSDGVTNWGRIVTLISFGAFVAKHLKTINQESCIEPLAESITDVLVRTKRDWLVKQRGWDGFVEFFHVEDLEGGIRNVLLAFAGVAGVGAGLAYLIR
Protein Tat, sequence (P04608 whole entry): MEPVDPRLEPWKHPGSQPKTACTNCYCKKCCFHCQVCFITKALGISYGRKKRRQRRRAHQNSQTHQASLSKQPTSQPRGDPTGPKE
fMet-Leu-Phe receptor, sequence (P21462 whole entry): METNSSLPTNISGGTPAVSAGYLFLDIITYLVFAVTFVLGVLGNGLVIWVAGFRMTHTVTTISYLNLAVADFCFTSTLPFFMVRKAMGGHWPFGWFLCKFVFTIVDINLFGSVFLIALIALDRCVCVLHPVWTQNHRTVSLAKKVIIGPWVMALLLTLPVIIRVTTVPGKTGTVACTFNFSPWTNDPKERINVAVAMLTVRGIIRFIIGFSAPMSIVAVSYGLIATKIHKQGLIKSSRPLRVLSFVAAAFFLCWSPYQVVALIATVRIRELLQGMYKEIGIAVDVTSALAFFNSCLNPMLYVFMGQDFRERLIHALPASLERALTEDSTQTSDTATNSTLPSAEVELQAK

SMILES: CC(C)(C)c1ccc(OCCn2c(CO)nc3ccccc32)cc1
- AC50 [1]: 20.6 µM (active)
- AC50 (cells): 21.6 µM (active)

SMILES: CC(C)C[C@H](NC(=O)c1[nH]cnc1C(=O)NCC(=O)OCc1ccccc1)C(=O)OCc1ccccc1
- EC50 [2]: > 29.9 µM (inactive)
- IC50 [3]: 4.32 µM (active)
- IC50 [4]: > 29.9 µM (inactive)
- EC50 [5]: > 29.9 µM (inactive)

SMILES: Cc1csc(NC(=O)c2cc(-c3ccco3)nc3ccccc23)n1
- IC50 [6]: 4.03 µM (active)
- IC50 [7]: 4.76 µM (active)
- IC50 [8]: 9.45 µM (active)
- IC50 [9]: 18.4 µM (active)
- IC50 [10]: > 67.5 µM (inactive)

SMILES: COc1cccc(-c2nc(CS(=O)(=O)CC(=O)NC3CC3)c(C)o2)c1
- CC50 [11]: > 40 µM (active)

SMILES: CC1CCCCN1C(=O)Cn1c(=O)oc2ccccc21 (stereo not given)
- IC50 [12]: > 109 µM (inactive)
- IC50 [13]: > 83.3 µM (inactive)

SMILES: OC[C@H]1CC[C@@H]2O[C@H](CCc3ccc(C#CCc4ccccc4)cc3)[C@H](n3cc(-c4ccccc4)nn3)C[C@@H]2O1
- AC50 [14]: 1.39 µM (active)
- AC50 [15]: 0.739 µM (active)
- AC50 [16]: 0.407 µM (active)
- AC50 [17]: 0.665 µM (active)

SMILES: O=C(NNc1ccccc1)C(=O)NNS(=O)(=O)c1ccc(CCCl)cc1
- EC50 [18]: 2.67 µM (inconclusive)
- EC50 [19]: > 38 µM (not active)
- EC50 [20]: 2 µM (active)
- EC50 [21]: 3.48 µM (active)
- IC50 [22]: 23.4 µM (inactive)
- IC50 [23]: 27 µM (inactive)

SMILES: COc1ccc2ncc(S(=O)(=O)c3ccccc3)c(N3CCN(c4ccccc4)CC3)c2c1
- EC50 [24]: 9.42 µM (active)
- EC50 (Streptokinase A): > 150 µM (not active)
- EC50 (Streptococcus): 74.8 µM (active)
- IC50 [12]: > 109 µM (inactive)
- IC50 [13]: > 83.3 µM (inactive)

SMILES: COc1ccccc1Nc1ccc(NC(=O)c2cccc([N+](=O)[O-])c2C)cc1
- AC50 [25]: 3.32 µM (active)
- IC50 [22]: 15.4 µM (inactive)
- IC50 [23]: > 69.5 µM (inactive)

SMILES: Cc1cc(N2C(=O)C(O)=C(C(=O)c3ccco3)C2c2cccnc2)no1 (stereo not given)
- Ki (fMet-Leu-Phe receptor): > 66.7 µM (inactive)

SMILES: CC(=O)C1=C(O)C(=O)N(Cc2ccco2)C1c1ccc(F)cc1 (stereo not given)
- IC50 (Protein Tat): > 100 µM (active)
- IC50 [26]: > 100 µM (active)

From ChEMBL document CHEMBL1201862, “PubChem BioAssay data set” (2004)
